Measured values as given in US7148014B2, “Methods of inhibiting phagocytosis” (University of Pennsylvania, priority 1993, dated 2006).

Columns and labels:
[1] = test system: FcγRIIA mediated phagocytosis in monocytes; assay: Phagocytosis of IgG-sensitized RBCs (EA) by cultured monocytes treated with ODN-liposome complexes; type: cell-based, human; conditions: for phagocytic index (PI): untreated PI 220±8.8
Procedure: Monocytes (1×10^5 cells/ml) were incubated with complexes of 4 μg/ml of LIPOFECTAMINE and ODNs (1.0 μM each of the linear control or the linear Syk antisense ODNs, or 0.2 μM each of the stem-loop control or the stem-loop Syk antisense ODN) for 2 days, and the phagocytosis of IgG-sensitized red blood cells (EA) was examined. Phagocytic index (PI)=number of ingested RBCs/100 cells. Each bar represents the mean±SEM of three separate experiments.
(§1) Antisense or scrambled control ODNs were modified to be protected from nucleases. One phosphodiester backbone at the 5-prime terminus and two at the 3-prime terminus were modified with phosphorothioate. Prediction of secondary structures of Syk mRNA (Law et al, J. Biol. Chem. 269:12310 (1994)) and ODNs were carried out with the MacDNASIS program (Hitachi Software, San Bruno, Calif.) on a Macintosh computer. Linear 17 mer Syk antisense ODN, having the sequence of 5′-[…]-3′ (SEQ ID NO:9), targets the area surrounding the translation initiation codon of Syk mRNA. Stem-loop Syk antisense ODN is a 57 mer containing sequences complementary to three different target sites, target I (the area of the translation initiation, nucleotide no. 159 to 173) , target II (451 to 463) , and target III (802 to 816) of Syk mRNA (Law et al, J. Biol. Chem. 269:12310 (1994)) (FIG. 5). The stem-loop Syk antisense ODN forms a stem and loop structure by itself and was designed to contain minimal intramolecular secondary structures in the loop domain (FIG. 6) . The sequence of the stem-loop Syk antisense ODN is 5′ - […] C-3′ (SEQ ID NO:10). Linear 17 mer control ODN has a random sequence of 5′-[…]-3′ (SEQ ID NO:11). Stem-loop 61 mer control ODN has a random sequence of 5′ -[…]- 3′ (SEQ ID NO:12) within the loop domain. The linear and stem-loop control ODNs were also modified at both the 5-prime and 3-prime termini by phosphorothioates. Preparation of liposomes: One μg each of the control scrambled phosphodiester ODNs, the linear and stem-loop Syk antisense ODNs in 50 μl of PBS were incubated with 4 μg (2 μl) of LIPOFECTAMINE™ (GIBCO BRL, Life Technologies, Inc. Gaithersburg, Md.). The ODN-liposome complexes were allowed to form at the room temperature for 45 min. Monocytes isolation and culture: Peripheral blood mononuclear cells from healthy individuals were isolated by a standard adherence procedure (Darby et al, J. Immunol. 152:5429 (1994)). Briefly, the heparinized blood was centrifuged on Ficoll-Hypaque (Lymphocyte Separation Medium; Organon Teknika, Durham, N.C.) and interface cells were washed twice in PBS. Mononuclear cells were resuspended in complete medium containing RPMI 1640 (GIBCO BRL, Life Technologies, Inc. Gaithersburg, Md.) with 10% heat-inactivated FCS and 2 mM L-glutamine. Cells were allowed to adhere at 37° C. onto tissue culture flasks precoated with FCS. After 45 to 90 min non-adherent cells were removed with extensive washing in HBSS. Cells were harvested by vigorous agitation. The yield of monocytes ranged from 2–6×10^7 cells/500 ml of blood. Monocytes were routinely more than 98% viable judged by trypan blue exclusion. Isolated monocytes were maintained in RPMI 1640 supplemented with L-glutamine (2 mM) and 10% heat-inactivated FCS at 37° C. with 5% CO2. Oligodeoxynucleotides treatment of cells. 1×10^5 Monocytes were incubated with ODN-liposome complexes containing 2 μg/ml of LIPOFECTAMINE and 0.5 μM of the linear control, 0.5 μM of the linear Syk antisense ODN or 0.1 μM of the stem-loop control, 0.1 μM of the stem-loop Syk antisense ODN in 0.3 ml of RPMI 1640 medium without FCS in a 24-well plate (Falcon; Becton Dickinson Labware, Lincoln Park, N.J.) at 37° C. for 4 h. Medium was added to a 1 ml final volume with RPMI 1640 containing 10% FCS and cells were then incubated at 37° C. for 2 days. […]

Syk mRNA = assay: RT-PCR / Southern hybridization of Syk mRNA in monocytes; type: cell-based, human; conditions: 2 days
Procedure: FIG. 8. Effect of Syk antisense ODNs on Syk mRNA in monocytes. Total RNA was isolated from monocytes (1×10^5 cells/ml) treated with complexes of 4 μg/ml of LIPOFECTAMINE and the ODNs (1.0 μM each of the linear control or the linear Syk antisense ODN, or 0.2 μM each of the stem-loop control or the stem-loop Syk antisense ODN) for 2 days, and cDNA was synthesized from total RNA with random hexanucleotide primers. PCR was performed with Syk cDNA as templates with two Syk primers (Syk-H and Syk-M). PCR products were analyzed by Southern hybridization and hybridized bands were visualized by chemiluminescent detection reagents.
as §1, with “PBS.” for “PBS. Mononuclear cells were resuspended in complete medium containing RPMI 1640 (GIBCO BRL, Life Technologies, Inc. Gaithersburg, Md.) with 10% heat-inactivated FCS and 2 mM L-glutamine. Cells were allowed to adhere at 37° C. onto tissue culture flasks precoated with FCS. After 45 to 90 min non-adherent cells were removed with extensive washing in HBSS. Cells were harvested by vigorous agitation. The yield of monocytes ranged from 2–6×10^7 cells/500 ml of blood. Monocytes were routinely more than 98% viable judged by trypan blue exclusion. Isolated monocytes were maintained in RPMI 1640 supplemented with L-glutamine (2 mM) and 10% heat-inactivated FCS at 37° C. with 5% CO2. Oligodeoxynucleotides treatment of cells. 1×10^5 Monocytes were incubated with ODN-liposome complexes containing 2 μg/ml of LIPOFECTAMINE and 0.5 μM of the linear control, 0.5 μM of the linear Syk antisense ODN or 0.1 μM of the stem-loop control, 0.1 μM of the stem-loop Syk antisense ODN in 0.3 ml of RPMI 1640 medium without FCS in a 24-well plate (Falcon; Becton Dickinson Labware, Lincoln Park, N.J.) at 37° C. for 4 h. Medium was added to a 1 ml final volume with RPMI 1640 containing 10% FCS and cells were then incubated at 37° C. for 2 days.”

[2] = test system: COS-1 cells transfected with FcγRIIIA-α/γ; assay: Phagocytosis of IgG-sensitized RBCs (EA) by transfected COS-1 cells; type: cell-based; conditions: for phagocytic activity restored after washing: pretreated 400 μM
Procedure: (§2) FcγRIIIA isoforms, FcγRIIIA-γγ, FcγRIIIA-ζζ, were generated by cotransfection of COS-1 cells with cDNA of γ or ζ as well as cDNA of α. Transfections of cDNAs were carried out with a modified DEAE-Dextran method. Briefly, 300,000 COS-1 cells were seeded on 35 mm well plates 24 hours prior to transfection. Plates of 70 to 80% confluence were washed twice and incubated for 30 minutes with Dulbeco's Modification of Eagle's Medium (DMEM, Gibco BRL, Grand Island, N.Y.) before transfection. Four μg of plasmid DNA (0.5 μg/μl) was slowly added to 1 ml of a transfection buffer containing Nu medium (DMEM with 10% of NuSerum [Collaborative Biomedical, Two Oak Park, Bedford, Mass.], 1 mg/ml of DEAE Dextran and 100 μM chloroquine. The transfection buffer containing DNA was added to COS-1 cells with incubation for 4 hours at 37° C. Cells were then shocked with 10%. DMSO in phosphate buffered saline (PBS) for 2 minutes, washed twice with DMEM and grown in NuSerum supplemented DMEM. Cells were studied 48 hours following transfection.
(§3) Binding and pragocytosis of IgG-sensitized RSCs (EA): Sterile sheep red blood cells (10^9/ml) in calcium and magnesium-free PBS were sensitized by incubation with an equal volume of a subagglutinating titer of rabbit anti-sheep RBC antibody (Cappel Laboratories, Cochranville, Pa.). The IgG-sensitized RBCs (EA) were washed twice with PBS and resuspended to a final concentration of 10^9/ml for overlaying on transfected COS-1 cells. Cells were examined for rosetting (>10 EA per COS-1 cell) and phagocytosis as described previously (Indik et al, J. Clin. Invest. 88:A66 (1991)). For the analysis of phagocytosis, COS-1 cells bound with EA (after three washings) were subjected to a brief hypotonic shock (35 seconds) with hypotonic PBS to remove surface bound EA. The cells were then stained with Wright-Giemsa staining solutions, and phagocytosis (ingested EA) was determined by light microscopy. Results obtained were analyzed by Student's T-test.

[3] = test system: COS-1 cells transfected with FcγRIIIA-α/γ; assay: Binding (rosetting) of EA by transfected COS-1 cells; type: cell-based
Procedure: as §2, §3

[4] = Stability of antisense ODNs to serum nucleases; type: in vitro ADME; conditions: for resistance to serum nucleases: modified with phosphorothioate
[5] = ODN 0.2 μM, LIPOFECTAMINE complexes, 2 days
[6] = ODN 1 μM, LIPOFECTAMINE complexes, 2 days

5′-GCCCAAGATGATTCCAG-3′ (SEQ ID NO:11) (phosphorothioate linkages at both termini, number not given here) [linear control]
effect on FcγRIIA mediated phagocytosis ([1]; ODN 1 μM): did not significantly affect | effect on Syk mRNA (Syk mRNA; ODN 1.0 μM): did not reduce

5′ -ATGGAATCATCTTGGGCATTCATTCGTTCCTCAAAGAAGAATATGAA- 3′ (SEQ ID NO:12) (listed as DNA, chemistry not given here) [stem-loop control, Stem-loop 61 mer scrambled control ODN]
effect on FcγRIIA mediated phagocytosis ([1]; ODN 0.2 μM): did not significantly affect | effect on Syk mRNA (Syk mRNA; ODN 0.2 μM): did not reduce

N#CC(C#N)=Cc1ccc(O)c(O)c1 [Tyr23, tyrphostin 23]
PI (Phagocytic Index) ([2]; Tyr23 25 μM): 68 ± 4 | PI (Phagocytic Index) ([2]; Tyr23 50 μM): 26 ± 7 | PI (Phagocytic Index) ([2]; Tyr23 100 μM): 16 ± 6 | PI (Phagocytic Index) ([2]; Tyr23 200 μM): 1.2 ± 1 | PI (Phagocytic Index) ([2]; Tyr23 400 μM): 0 | PI (Phagocytic Index) ([2]; Tyr23 400 μM + washing (3 hr wash)): 63 ± 7 | IC50 ([2]; dose dependent, p<0.01, read-out: concentration giving 50% inhibition of phagocytosis): 25 µM | concentration giving complete inhibition of phagocytosis ([2]; p<0.01): 200 to 400 µM | phagocytic activity restored after washing ([2]; 3 hr wash): partially | phagocytic activity restored after washing ([2]; overnight wash (data not shown)): completely | viability of transfectants on inhibition of phagocytosis ([2]; pretreated with 400 μM followed by washing): not associated with reduction in viability | effect on binding of EA [3]: did not affect | Rosetting (% Cells) ([3]; Tyr23 25 μM): 52 ± 9 % Cells | Rosetting (% Cells) ([3]; Tyr23 50 μM): 52 ± 8 % Cells | Rosetting (% Cells) ([3]; Tyr23 100 μM): 49 ± 7 % Cells | Rosetting (% Cells) ([3]; Tyr23 200 μM): 47 ± 5 % Cells | Rosetting (% Cells) ([3]; Tyr23 400 μM): 48 ± 3 % Cells | Rosetting (% Cells) ([3]; Tyr23 400 μM + washing): 44 ± 6 % Cells

5′ - GGGGGGGCTGTCAGCCATGCCGTGTCTTGTCTTTGTCGCTTCTTGAGGAGCCCCCC C-3′ (SEQ ID NO:10) (antisense GGGGGGGCTGTCAGCCATGCCGTGTCTTGTCTTTGTCGCTTCTTGAGGAGCCCCCCC; DNA, backbone and methylation of C not given here; stem-loop hairpin, phosphorothioates at both termini, further chemistry not fully specified) [stem-loop Syk antisense ODN, 57 mer stem-loop ODN complementary to three target sites of human Syk mRNA, phosphorothioate-modified termini]
stability when complexed with liposomes ([4]; complexed with liposomes): markedly improved | resistance to serum nucleases [4]: partial resistance | stability in serum ([4]; with phosphorothioate modifications): exceptional stability | reduction of the phagocytic signal compared with a mixture of three linear antisense oligonucleotides [1]: more dramatically | reduction in phagocytosis (phagocytic index) [1, 5]: 89% | phagocytic index (PI) [1, 5]: 24±4.2 | effect on Syk mRNA (Syk mRNA; ODN 0.2 μM): completely eliminated

5′-CGCTGTCAGCCATGCCG-3′ (SEQ ID NO:9) (DNA, backbone and methylation of C not given here; phosphorothioate linkages at both 5' and 3' termini, further chemistry not fully specified) [linear Syk antisense ODN, Linear 17 mer, phosphorothioate-modified termini, targets area surrounding translation initiation codon of human Syk mRNA]
resistance to serum nucleases [4]: partial resistance | Phagocytosis reduced by (phagocytic index) [1, 6]: 49% | phagocytic index (PI) [1, 6]: 113±12.3 | effect on Syk mRNA (Syk mRNA; ODN 1.0 μM): substantially reduced
